Experimental data: publication PMC5315611 (Clinical cancer research : an official journal of the …, 2016)
Read-outs that look alike come from different tables or passages of the source.

Experiments:
[1] = human, in vivo, po
[2] = Veliparib plasma pharmacokinetics; conditions: after multiple doses, MTD (80 mg) vs highest administered dose (100 mg)
[3] = clinical; conditions: human, in vivo, po; for half-life: t1/2
[4] = tested on: AML cell lines and clinical samples; conditions: in vitro; cited from earlier work
[5] = tested on: relapsed or refractory acute leukemia; conditions: cited from earlier work

In the case of C[C@]1(c2nc3c(C(N)=O)cccc3[nH]2)CCCN1 [veliparib], the Cl/F ([1]; 10 mg) is reported as 27.7 ± 9.3 (23) L/h, the Cl/F ([1]; 20 mg) is reported as 31.7 ± 7.7 (12) L/h and the Cl/F ([1]; 40 mg) is reported as 36.4 ± 15.4 (5) L/h. The Cl/F ([1]; 80 mg) was 26.2 ± 7.1 (30) L/h, the Cmax ([1]; 80 mg) was 608.7 ± 260.3 (35) ng/mL and the Tmax ([1]; 80 mg) was 1.1 (0.3 - 6.0; 35) h. For the same compound, the t1/2 ([1]; 80 mg) was 4.7 ± 1.4 (30) h, the Cl/F ([1]; 90 mg) was 35.9 ± 10.2 (3) L/h and the Cl/F ([1]; 100 mg) was 44.9 ± 50.6 (4) L/h. For the same compound, the “increase in AUC” value [2] was 2.0 fold, the “maximum tolerated dose (MTD) of veliparib” value (with CI IV topotecan 1.2 mg/m^2/d + carboplatin 150 mg/m^2/day on days 3-7) was 80 mg twice daily and the Cmax ([3]; 10 mg) was 74.6 ± 33 ng/mL. The half-life ([3]; 10 mg) was 5.5 ± 3.5 h, the Tmax ([3]; 10 mg) was 2 h and the Cmax ([3]; 20 mg) was 102 ± 31.6 ng/mL. It also gave a half-life ([3]; 20 mg) of 4.7 ± 1.1 h, a Tmax ([3]; 20 mg) of 2 h and a Cmax ([3]; 40 mg) of 231 ± 128 ng/mL. The half-life ([3]; 40 mg) was 4.1 ± 0.9 h, the Tmax ([3]; 40 mg) was 1 h and the Cmax ([3]; 90 mg) was 509 ± 101 ng/mL. The half-life ([3]; 90 mg) was 3.2 ± 1.2 h, the Tmax ([3]; 90 mg) was 1 h and the Cmax ([3]; 100 mg) was 1120 ± 718 ng/mL. The half-life ([3]; 100 mg) was 5.9 ± 2.4 h, the Tmax ([3]; 100 mg) was 1 h and the “effect on the antiproliferative and proapoptotic effects of topotecan” value [4] was “enhances”. For the same compound, the “synergy with cytarabine or etoposide” value [4] was “no synergy”.

In the case of CC[C@@]1(O)C(=O)OCc2c1cc1n(c2=O)Cc2cc3c(CN(C)C)c(O)ccc3nc2-1 [topotecan], the “topotecan dose at the MTD of the combination” value (CI IV days 3-7, with veliparib 80 mg twice daily + carboplatin 150 mg/m^2/d) is given as 1.2 mg/m^2/d, the “toxicity associated with topotecan 1.3 mg/m^2” value (in vivo) is given as “dose-limiting GI mucositis” and the “maximum tolerated dose (MTD) of topotecan” value ([5]; with carboplatin simultaneously for 5 days) is given as 1.6 mg/m^2/day.

For N.N.O=C([O-])C1(C(=O)[O-])CCC1.[Pt+2] [carboplatin], the “carboplatin dose at the MTD of the combination” value (CI IV days 3-7, with veliparib 80 mg twice daily + topotecan 1.2 mg/m^2/d) is given as 150 mg/m^2/d and the “maximum tolerated dose (MTD) of carboplatin” value ([5]; with topotecan simultaneously for 5 days) is given as 150 mg/m^2/day.
